Assay results published in patent publication US12403144B2, “HECT E3 ligase inhibitors and uses thereof” (IFOM FONDAZIONE ISTITUTO FIRC DI ONCOLOGIA MOLECOLARE, priority 2019, dated 2025).
Where a name gives a salt, the structure may show the parent alone.

Each molecule was assayed against T1, untagged HECT of NEDD4 wild-type (WT) (E3 ligase) (Homo sapiens, UniProt P46934) (assay: In vitro ubiquitination assay TR-FRET based (self-ubiquitination of NEDD4)). Conditions: at 11 μM; pre-incubated for 1 hour; AUC of 120 minutes kinetic; read-out: percentages of inhibition (NEDD4).
T1 construct: untagged HECT of NEDD4 wild-type (WT) (E3 ligase); made in house
T1 sequence (P46934 519-900 isoform P46934-4 limits assumed): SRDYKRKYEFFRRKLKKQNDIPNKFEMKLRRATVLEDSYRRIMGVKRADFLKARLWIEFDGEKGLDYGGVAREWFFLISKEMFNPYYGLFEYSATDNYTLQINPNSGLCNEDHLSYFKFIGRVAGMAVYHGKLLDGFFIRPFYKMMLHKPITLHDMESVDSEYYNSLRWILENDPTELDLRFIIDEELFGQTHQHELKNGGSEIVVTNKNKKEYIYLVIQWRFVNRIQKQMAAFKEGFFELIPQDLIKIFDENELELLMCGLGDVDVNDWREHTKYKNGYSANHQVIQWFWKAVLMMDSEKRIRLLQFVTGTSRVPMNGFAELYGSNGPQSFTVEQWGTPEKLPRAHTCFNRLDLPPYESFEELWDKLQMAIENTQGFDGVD
Type: biochemical
Description: FIG. 1: TR-FRET kinetic assay performed with compound 12. […] Reactions were initiated with the addition of ATP. As labeled ubiquitin molecules become incorporated into chains they come into close proximity, resulting in energy transfer and increased signal to background detection. The activity of the enzyme is continuously and real time detected and it is expressed as % of signal/background during the time.
In order to quantitatively measure the self-ubiquitination process of the E3 HECT ligase NEDD4 the inventors employed a TR-FRET based assay. TR-FRET technology exploits the long-lasting emission of lanthanide fluorescence to interpose a short time-delay between FRET donor excitation and emission. This phenomenon enables to isolate real fluorescent signals from short-lived background emissions, thus reducing possible interference from compounds.
In the present study, elongation of the ubiqutin chain by NEDD4 is measured by adding bacterially expressed E1, His-tagged UBE2D3 (E2) and untagged HECT of NEDD4 wild-type (WT) (E3 ligase) (named in FIG. 1 as WT) enzymes to a mixture of Eu-cryptate ubiquitin, Cy5-ubiquitin and wild-type ubiquitin, combined in a ratio optimized for TR-FRET based conjugation (100×TRF-Ubiquitin Mix, SBB-TR0051). […] Bacterially expressed E1, His-tagged UBE2D3 (E2), untagged HECT NEDD4 (E3 ligase) WT and NEDD4 C/A enzymes were produced and purified as reported in E. Maspero et al. Methods Mol Biol. 1449:153-60 (2016).
Enzymatic incorporation of the labeled TRF-Ubiquitin mix into chains leads to an increase in fluorescence emission at 665 nm (emission of the acceptor Cy5-Ubiquitin, Emacceptor) and decrease at emission wavelength 620 nm (emission of the donor Eu-cryptate Ubiquitin, Emdonor).
The assay was performed in a 384-well plate format (Optiplate, Perkin Elmer, #6007290) on an automated liquid-handler (Hamilton STAR, Hamilton Robotics, Switzerland).
All compounds were dissolved in 100% DMSO and serially diluted in 96-well plates (from 100 μM to 0.005 μM).
Briefly, all reagents were thawed and kept on ice. A master mix containing E1, E2, E3 and TRF-Ubiquitin Mix (SBB-TR0051) diluted in the assay buffer (Tris-HCl pH 7.6 25 mM, NaCl 100 mM, MgCl2 5 mM and Tween 0.01%) is prepared and 50 μl/well is dispensed in a 384 well plate. 3 μl of compounds dissolved in DMSO in the above-indicated concentration range were added and pre-incubated for 1 hour. Final E1, E2 and E3 concentrations in the assay buffer (Tris-HCl pH 7.6 25 mM, NaCl 100 mM, MgCl2 5 mM and Tween 0.01%) were 30, 350 and 50 nanomolars, respectively. The reaction was initiated with the addition of ATP (22 μl of 2 mM ATP, JenaBioscience, NU-1010) and was allowed to proceed for 120 minutes, measuring fluorescence emission at 665 nm and 620 nm in real-time on an EnSpire microplate reader (Perkin Elmer).
Kinetic raw data were analyzed by Area Under the Curve (AUC) method using Prism GraphPad software.
% signal/background corresponds to the following equation: (Experimental signal−Background signal)/Background signal×100%
Experimental signal corresponds to the signal obtained by the enzymatic reaction in presence of the vehicle (DMSO) and/or the different compound concentrations. Background signal corresponds to the signal obtained by the enzymatic reaction in absence of ATP.
The relative potency of the compounds was evaluated by dose-response curves following the enzymatic reaction of HECT NEDD4 WT in real time for 120 minutes.
Percentage of inhibition is then determined by the equation: % inhibition=100×[1−(X)/(MAX)],
where MAX correspond to AUC of the vehicle (DMSO) treated enzyme, and X corresponds to the AUC of the compound treated enzyme.

`CCC(=O)/C=C/CN(C)CCCCN1c2ccccc2CCc2ccc(Cl)cc21` [Compound 54, (E)-6-[4-(3-chloro-10,11-dihydro-5H-dibenzo[b,f]azepin-5-yl)butyl-methyl-amino]hex-4-en-3-one maleate] and `CCOC(=O)/C=C/CN(C)CCCCN1c2ccccc2CCc2ccc(Cl)cc21` [Compound 63, Ethyl (E)-4-{[4-(3-chloro-10,11-dihydro-5H-dibenzo[b,f]azepin-5-yl)butyl]-methyl-amino}but-2-enoate maleate] cannot be ordered by inhibition at 11 µM: greater than 50% for the first, greater than 50% for the second.

First: CCOC(=O)/C=C/CNCCCN1c2ccccc2C(=O)N(CCO)c2ccc(Cl)cc21 [Compound 55, Ethyl (E)-4-({3-[7-chloro-10-(2-hydroxyethyl)-11-oxo-10,11-dihydro-5H-dibenzo[b,e][1,4]diazepin-5-yl]propyl}amino)but-2-enoate maleate]
Second: CCOC(=O)/C=C/CNCCCCN1c2ccc(CO)cc2CCc2ccc(Cl)cc21 [Compound 74, Ethyl (E)-4-[4-(7-Chloro-2-hydroxymethyl-10,11-dihydro-dibenzo[b,f]azepin-5-yl)-butylamino]-but-2-enoate maleate]
The inhibition at 11 µM of the first is lower: less than 30% for the first, greater than 50% for the second.

`CC(=O)/C=C/CN(C)CCCCN1c2cc(Cl)ccc2C(=O)N(C)c2ccccc21` [Compound 57, 3-Chloro-10-methyl-5-(4-{methyl[(E)-4-oxopent-2-en-1-yl]amino}butyl)-5,10-dihydro-11H-dibenzo[b,e][1,4]diazepin-11-one maleate] and `CC(=O)/C=C/CN(C)CCCCN1c2cc(Cl)ccc2C(=O)N(Cc2ccccc2)c2ccccc21` [Compound 60, 10-Benzyl-3-chloro-5-(4-{methyl[(E)-4-oxo-pent-2-en-1-yl]amino}butyl)-5,10-dihydro-11H-dibenzo[b,e][1,4]diazepin-11-one maleate] cannot be ordered by inhibition at 11 µM: greater than 50% for the first, greater than 50% for the second.

`CON(C)C(=O)/C=C/CN(C)CCCCN1c2cc(Cl)ccc2C(=O)N(Cc2ccccc2)c2ccccc21` [Compound 59, (E)-4-{[4-(10-Benzyl-3-chloro-11-oxo-10,11-dihydro-5H-dibenzo[b,e][1,4]diazepin-5-yl)butyl](methyl)amino}-N-methoxy-N-methyl-but-2-enamide maleate] and `CON(C)C(=O)/C=C/CN(C)CCCCN1c2cc(Cl)ccc2COc2ccccc21` [Compound 69, (E)-4-[4-(3-Chlorodibenzo[b,e][1,4]oxazepin-5(11H)-yl)butyl-methyl-amino]-N-methoxy-N-methyl-but-2-enamide] cannot be ordered by inhibition at 11 µM: greater than 50% for the first, greater than 50% for the second.

First: COC(=O)/C=C/CNCCCCN1c2ccccc2CCc2ccc(Cl)cc21 [Compound 62, Methyl (E)-4-[4-(3-chloro-10,11-dihydro-5H-dibenzo[b,f]azepin-5-yl)butylamino]but-2-enoate maleate]
Second: CNC(=O)/C=C/CNCCCCN1c2ccccc2CCc2ccc(Cl)cc21 [Compound 66, (E)-4-{[4-(3-chloro-10,11-dihydro-5H-dibenzo[b,f]azepin-5-yl)butyl]amino}-N-methyl-but-2-enamide hydrochloride]
The inhibition at 11 µM of the first is higher: greater than 50% for the first, 30 to 50% for the second.

`CCOC(=O)/C=C/CN(CC)CCCCN1c2ccccc2CCc2ccc(Cl)cc21` [Compound 64, Ethyl (E)-4-{[4-(3-chloro-10,11-dihydro-dibenzo[b,f]azepin-5-yl)butyl]-ethyl-amino}but-2-enoate maleate] and `CCOC(=O)/C=C/CN(CCCCN1c2ccccc2CCc2ccc(Cl)cc21)C(C)C` [Compound 65, Ethyl (E)-4-{[4-(3-chloro-10,11-dihydro-dibenzo[b,f]azepin-5-yl)butyl]-isopropyl-amino}but-2-enoate maleate] cannot be ordered by inhibition at 11 µM: greater than 50% for the first, greater than 50% for the second.

`CCOC(=O)/C=C/CNCCCCN1c2ccc(OC)cc2CCc2ccc(Cl)cc21` [Compound 67, Ethyl (E)-4-[4-(7-Chloro-2-methoxy-10,11-dihydro-dibenzo[b,f]azepin-5-yl)-butylamino]-but-2-enoate maleate] and `CCOC(=O)/C=C/CNCCCCN1c2ccc(COC)cc2CCc2ccc(Cl)cc21` [Compound 75, Ethyl (E)-4-[4-(7-chloro-2-methoxymethyl-10,11-dihydro-dibenzo[b,f]azepin-5-yl)-butylamino]-but-2-enoate maleate] cannot be ordered by inhibition at 11 µM: greater than 50% for the first, greater than 50% for the second.

`COC(=O)/C=C/CN(C)CCCCN1c2cc(Cl)ccc2COc2ccccc21` [Compound 68, Methyl (E)-4-[4-(3-chlorodibenzo[b,e][1,4]oxazepin-5(11H)-yl)butyl-methyl-amino]but-2-enoate] and `CC(=O)/C=C/CN(C)CCCCN1c2cc(Cl)ccc2COc2ccccc21` [Compound 70, (E)-5-[4-(3-Chlorodibenzo[b,e][1,4]oxazepin-5(11H)-yl)butyl-methyl-amino]pent-3-en-2-one maleate] cannot be ordered by inhibition at 11 µM: greater than 50% for the first, greater than 50% for the second.

`N#C/C=C/CNCCCCN1c2ccccc2CCc2ccc(Cl)cc21` [Compound 71, (E)-4-[4-(3-chloro-10,11-dihydro-5H-dibenzo[b,f]azepin-5-yl)butylamino]but-2-enenitrile maleate] and `CN(C/C=C/C#N)CCCCN1c2ccccc2CCc2ccc(Cl)cc21` [Compound 73, (E)-4-[4-(3-Chloro-10,11-dihydro-5H-dibenzo[b,f]azepin-5-yl)butyl-methyl-amino]but-2-enenitrile maleate] cannot be ordered by inhibition at 11 µM: greater than 50% for the first, greater than 50% for the second.

`CN(C/C=C/C(N)=O)CCCCN1c2ccccc2CCc2ccc(Cl)cc21` [Compound 72, (E)-4-[4-(3-Chloro-10,11-dihydro-5H-dibenzo[b,f]azepin-5-yl)butyl-methyl-amino]but-2-enamide] and `CCONC(=O)/C=C/CNCCCCN1c2ccccc2CCc2ccc(Cl)cc21` [Compound 80, (E)-4-[4-(3-chloro-10,11-dihydro-5H-dibenzo[b,f]azepin-5-yl)butylamino]-N-ethoxy-but-2-enamide maleate] cannot be ordered by inhibition at 11 µM: greater than 50% for the first, greater than 50% for the second.

`CCOC(=O)/C=C/CNCCCCN1c2ccc(COCCOC)cc2CCc2ccc(Cl)cc21` [Compound 76, Ethyl (E)-4-[4-(7-chloro-2-methoxyethoxymethyl-10,11-dihydro-dibenzo[b,f]azepin-5-yl)-butylamino]-but-2-enoate maleate] and `CC(C)ONC(=O)/C=C/CNCCCCN1c2ccccc2CCc2ccc(Cl)cc21` [Compound 81, (E)-4-[4-(3-chloro-10,11-dihydro-5H-dibenzo[b,f]azepin-5-yl)butylamino]-N-isopropoxy-but-2-enamide maleate] cannot be ordered by inhibition at 11 µM: greater than 50% for the first, greater than 50% for the second.

`O=C(/C=C/CNCCCCN1c2ccccc2CCc2ccc(Cl)cc21)NOCc1ccccc1` [Compound 79, (E)-4-[4-(3-chloro-10,11-dihydro-5H-dibenzo[b,f]azepin-5-yl)butylamino]-N-benzyloxy-but-2-enamide maleate] and `O=C(/C=C/CNCCCCN1c2ccccc2CCc2ccc(Cl)cc21)NOc1ccccc1` [Compound 82, (E)-4-[4-(3-chloro-10,11-dihydro-5H-dibenzo[b,f]azepin-5-yl)butylamino]-N-phenoxy-but-2-enamide maleate] cannot be ordered by inhibition at 11 µM: greater than 50% for the first, greater than 50% for the second.
